Laboratory results as given in paper PMC5808361 (Journal of Medicinal Chemistry, 2017).
Like-named read-outs stand apart in the source and are kept apart here.

Columns and labels:
[1] = tested on: 31 other lysine methyltransferases, arginine methyltransferases, and DNA and RNA methyltransferases; test: Methyltransferase selectivity assays; type: biochemical; conditions: compound concentrations of 1, 5, and 20 μM
[2] = tested on: 55 protein targets (47 GPCRs, five ion channels, and three transporters); test: CEREP selectivity panel; type: binding; conditions: at 10 μM
human Flag-tagged PRMT3 = human Flag-tagged PRMT3 (Homo sapiens, UniProt O60678); test: Cellular PRMT3 assay; type: cell-based
PRMT3 = PRMT3 (Homo sapiens, UniProt O60678); test: PRMT3 biochemical assay
PRMT3, sequence (O60678 whole entry): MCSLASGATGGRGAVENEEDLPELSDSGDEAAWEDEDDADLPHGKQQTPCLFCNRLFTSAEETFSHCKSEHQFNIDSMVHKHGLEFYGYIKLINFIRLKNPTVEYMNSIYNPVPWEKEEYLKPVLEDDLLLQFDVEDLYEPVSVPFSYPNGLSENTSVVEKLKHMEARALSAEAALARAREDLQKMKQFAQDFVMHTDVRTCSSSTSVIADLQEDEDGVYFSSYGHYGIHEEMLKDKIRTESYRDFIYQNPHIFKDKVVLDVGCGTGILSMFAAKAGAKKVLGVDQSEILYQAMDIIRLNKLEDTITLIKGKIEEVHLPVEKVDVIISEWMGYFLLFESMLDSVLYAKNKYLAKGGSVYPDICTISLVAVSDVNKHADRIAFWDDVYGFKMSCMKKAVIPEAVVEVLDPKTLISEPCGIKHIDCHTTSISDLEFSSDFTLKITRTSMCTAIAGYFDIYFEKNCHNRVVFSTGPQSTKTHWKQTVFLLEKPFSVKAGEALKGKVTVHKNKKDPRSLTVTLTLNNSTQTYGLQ

human Flag-tagged PRMT3, sequence (O60678 whole entry): as above

Structure (SMILES) | selectivity for PRMT3 over 31 other methyltransferases (in words) [1] | % of inhibition (off-target activities) [2] | other results
O=C(NCC(=O)N1CC(F)(F)C(F)(F)C1)Nc1ccc2cnccc2c1 [Compound 29, 1-(Isoquinolin-6-yl)-3-(2-oxo-2-(3,3,4,4-tetrafluoropyrrolidin-1-yl)ethyl)urea] | highly selective for PRMT3 | < 50% | effect on H4R3me2a levels (in words) (human Flag-tagged PRMT3; 1 μM compound, compared with catalytically dead PRMT3 mutant E335Q): matched with that of the catalytically dead PRMT3 mutant E335Q
O=C(NCC(=O)N1CCCC1)Nc1cc2ccncc2cc1F [Compound 36, 1-(7-Fluoroisoquinolin-6-yl)-3-(2-oxo-2-(pyrrolidin-1-yl)ethyl)urea] | highly selective for PRMT3 | < 50% | effect on H4R3me2a levels (in words) (human Flag-tagged PRMT3): matched with that of the catalytically dead PRMT3 mutant E335Q
CON(C)C(=O)CNC(=O)Nc1ccc2cnccc2c1 [Compound 22, 2-(3-(Isoquinolin-6-yl)ureido)-N-methoxy-N-methylacetamide] |  |  | fold less potent than 5 (PRMT3; PRMT3 IC50 relative to compound 5): around 6 fold
CN1CCN(C(=O)CNC(=O)Nc2ccc3cnccc3c2)CC1 [Compound 18, 1-(Isoquinolin-6-yl)-3-(2-(4-methylpiperazin-1-yl)-2-oxoethyl)urea] |  |  | PRMT3 inhibitory activity (in words) (PRMT3; PRMT3 biochemical assay): loss of the inhibitory activity
CC1CCC(C)N1C(=O)CNC(=O)Nc1ccc2cnccc2c1 (stereo not drawn) [Compound 30, 1-(2-(2,5-Dimethylpyrrolidin-1-yl)-2-oxoethyl)-3-(isoquinolin-6-yl)urea] |  | < 50% | 
